# Experimental data reported in patent US6982279B2, “Arylated furan- and thiophenecarboxamides, processes for their preparation, their use as medicaments, and pharmaceutical preparations comprising them” (Aventis Pharm Deutschland GmbH, priority 2000, dated 2006).
# Biological target: T1, Kv1.5 channels from humans (Homo sapiens, UniProt P22460)
# T1 construct: expressed in transfected cells; host or cells: Xenopus laevis oocytes injected with in vitro synthesized RNA
# Assay: Kv1.5 currents in Xenopus oocytes, 2-microelectrode voltage clamp
# Format: cell-based
# Details: human Kv1.5 expressed in Xenopus laevis oocytes; voltage jumps to 0 mV and 40 mV lasting 500 ms; room temperature; Hill equation
# Experimental: Kv1.5 channels from humans were expressed in Xenopus oocytes. To this end, oocytes from Xenopus laevis were first isolated and defolliculated. RNA coding for Kv1.5 synthesized in vitro was then injected into these oocytes. After a Kv1.5 protein expression for 1-7 days, Kv1.5 currents were measured on the oocytes using the 2-microelectrode voltage clamp technique. The Kv1.5 channels were in this case as a rule activated using voltage jumps to 0 mV and 40 mV lasting 500 ms. The bath was rinsed using a solution of the following composition: NaCl 96 mM, KCl 2 mM, CaCl2 1.8 mM, MgCl2 1 mM, HEPES 5 mM (titrated with NaOH to pH 7.4). These experiments were carried out at room temperature. The following were employed for data acquisition and analysis: Gene clamp amplifier (Axon Instruments, Foster City, USA) and MacLab D/A converter and software (ADInstruments, Castle Hill, Australia). The substances according to the invention were tested by adding them to the bath solution in different concentrations. The effects of the substances were calculated as the percentage inhibition of the Kv1.5 control current which was obtained when no substance was added to the solution. The data were then extrapolated using the Hill equation in order to determine the inhibition concentrations IC50 for the respective substances.
# T1 sequence (P22460 whole entry): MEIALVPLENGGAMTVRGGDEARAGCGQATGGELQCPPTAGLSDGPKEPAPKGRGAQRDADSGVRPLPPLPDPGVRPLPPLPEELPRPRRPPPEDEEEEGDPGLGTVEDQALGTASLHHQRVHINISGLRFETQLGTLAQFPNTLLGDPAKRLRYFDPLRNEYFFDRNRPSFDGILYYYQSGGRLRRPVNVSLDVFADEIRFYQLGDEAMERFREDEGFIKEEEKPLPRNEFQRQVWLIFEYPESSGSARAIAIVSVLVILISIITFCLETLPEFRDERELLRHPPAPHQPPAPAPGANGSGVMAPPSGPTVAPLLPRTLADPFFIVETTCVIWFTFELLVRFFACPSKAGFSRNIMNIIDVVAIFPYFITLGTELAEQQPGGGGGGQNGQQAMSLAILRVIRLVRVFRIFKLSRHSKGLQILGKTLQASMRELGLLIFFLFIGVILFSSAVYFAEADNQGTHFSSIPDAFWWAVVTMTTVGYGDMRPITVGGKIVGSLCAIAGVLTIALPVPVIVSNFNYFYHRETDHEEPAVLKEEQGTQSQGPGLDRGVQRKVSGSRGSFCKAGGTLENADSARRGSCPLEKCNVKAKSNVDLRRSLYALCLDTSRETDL
row,SMILES,IC50 [µM]
1,CC(C)(C)OC(=O)NCc1ccccc1-c1ccsc1C(=O)NCc1ccc(F)cc1F [Example 2],5
2,CC(C)(C)OC(=O)NCc1ccccc1-c1ccoc1C(=O)NCc1ccc(F)cc1F [Example 3],9
3,CC(C)CCNC(=O)c1occc1-c1ccccc1CNC(=O)OC(C)(C)C [Example 4],10
4,CC(C)(C)OC(=O)NCc1ccccc1-c1sccc1C(=O)NCc1ccc(F)cc1F [Example 5],3.1
5,CC(C)CCNC(=O)c1ccsc1-c1ccccc1CNC(=O)OC(C)(C)C [Example 6],< 100
6,CC(C)(C)OC(=O)NCc1ccccc1-c1occc1C(=O)NCc1ccc(F)cc1F [Example 7],10
7,CC(C)CCNC(=O)c1ccoc1-c1ccccc1CNC(=O)OC(C)(C)C [Example 8],5.2
8,CC(C)(C)OC(=O)NCc1ccccc1-c1ccc(C(=O)NCc2ccc(F)cc2F)o1 [Example 9],< 100
9,CC(C)CCNC(=O)c1ccc(-c2ccccc2CNC(=O)OC(C)(C)C)o1 [Example 10],< 100
10,O=C(NCc1ccccc1-c1ccsc1C(=O)NCc1ccc(F)cc1F)OCc1ccccc1 [Example 12],2
11,CC(C)CCNC(=O)c1occc1-c1ccccc1CNC(=O)OCc1ccccc1 [Example 13],5.6
12,O=C(NCc1ccccc1-c1ccoc1C(=O)NCc1ccc(F)cc1F)OCc1ccccc1 [Example 14],< 100
13,O=C(NCc1ccccc1-c1sccc1C(=O)NCc1ccc(F)cc1F)OCc1ccccc1 [Example 16],1.9
14,CC(C)CCNC(=O)c1ccoc1-c1ccccc1CNC(=O)OCc1ccccc1 [Example 17],2.2
15,O=C(NCc1ccccc1-c1occc1C(=O)NCc1ccc(F)cc1F)OCc1ccccc1 [Example 18],5.2
16,O=C(NCc1ccccc1-c1ccc(C(=O)NCc2ccc(F)cc2F)o1)OCc1ccccc1 [Example 19],< 100
17,COc1ccc(CC(=O)NCc2ccccc2-c2occc2C(=O)NCc2ccc(F)cc2F)cc1 [Example 27],6.6
18,COc1ccc(CC(=O)NCc2ccccc2-c2ccc(C(=O)NCc3ccc(F)cc3F)o2)cc1 [Example 29],4.2

# Now from value to compound:
row,IC50 [µM],SMILES
1,4,"CC(C)CCNC(=O)c1sccc1-c1ccccc1CNC(=O)OC(C)(C)C [Example 1, tert-Butyl {2-[2-(3-methylbutylcarbamoyl)thiophen-3-yl]benzyl}carbamate]"
2,3,"CC(C)CCNC(=O)c1sccc1-c1ccccc1CNC(=O)OCc1ccccc1 [Example 11, Benzyl {2-[2-(3-methylbutylcarbamoyl)thiophen-3-yl]-benzyl}carbamate]"
3,1.2,CC(C)CCNC(=O)c1ccsc1-c1ccccc1CNC(=O)OCc1ccccc1 [Example 15]
4,< 100,COc1ccc(CC(=O)NCc2ccccc2-c2ccoc2C(=O)NCCC(C)C)cc1 [Example 20]
5,3.9,COc1ccc(CC(=O)NCc2ccccc2-c2ccoc2C(=O)NCc2ccc(F)cc2F)cc1 [Example 21]
6,1.7,COc1ccc(CC(=O)NCc2ccccc2-c2ccsc2C(=O)NCCC(C)C)cc1 [Example 22]
7,1.2,COc1ccc(CC(=O)NCc2ccccc2-c2ccsc2C(=O)NCc2ccc(F)cc2F)cc1 [Example 23]
8,2.2,COc1ccc(CC(=O)NCc2ccccc2-c2sccc2C(=O)NCCC(C)C)cc1 [Example 24]
9,1.5,COc1ccc(CC(=O)NCc2ccccc2-c2sccc2C(=O)NCc2ccc(F)cc2F)cc1 [Example 25]
10,3.9,COc1ccc(CC(=O)NCc2ccccc2-c2occc2C(=O)NCCC(C)C)cc1 [Example 26]
11,< 100,COc1ccc(CC(=O)NCc2ccccc2-c2ccc(C(=O)NCCC(C)C)o2)cc1 [Example 28]
